Experimental findings from PMC5055294 (PLoS ONE, 2016) are described below.

Format in all cases: cell-based
In experiment [1] the target is T1, CMKLR1 (Homo sapiens, UniProt Q99788).
T1 sequence (Q99788 1-373): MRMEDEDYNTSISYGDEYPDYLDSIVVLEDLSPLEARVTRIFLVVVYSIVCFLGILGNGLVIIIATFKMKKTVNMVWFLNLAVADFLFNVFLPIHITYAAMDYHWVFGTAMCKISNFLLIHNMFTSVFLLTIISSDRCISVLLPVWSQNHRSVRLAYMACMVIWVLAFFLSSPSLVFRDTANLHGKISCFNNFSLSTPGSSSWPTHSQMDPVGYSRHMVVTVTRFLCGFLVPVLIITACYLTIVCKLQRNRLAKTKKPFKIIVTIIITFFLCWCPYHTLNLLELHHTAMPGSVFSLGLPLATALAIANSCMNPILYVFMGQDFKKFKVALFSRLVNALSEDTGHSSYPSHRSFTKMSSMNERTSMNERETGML
Nature of the experiment: β-arrestin BRET recruitment assay, CMKLR1. Also on record: expressed in transfected cells; host or cells: HEK293T. The following applies: CMKLR1, HEK293T; PTX pretreatment, 100 nM chemerin. As to the method: (§1) β-arrestin recruitment was measured by a BRET proximity assay as previously described. Briefly, plasmids encoding Rluc-β-arrestin 2 and receptors fused to Venus were cotransfected into HEK293T cells by using the calcium phosphate method. […] BRET^1 between RLuc and YFP was measured after the addition of coelenterazine h (5 μM, Promega).
(§2) Data represent the mean ± S.E.M. of three independent experiments.
as §2

The target of experiment [2] is T2, GPR1 (Homo sapiens, UniProt P46091).
T2 sequence (P46091 1-355): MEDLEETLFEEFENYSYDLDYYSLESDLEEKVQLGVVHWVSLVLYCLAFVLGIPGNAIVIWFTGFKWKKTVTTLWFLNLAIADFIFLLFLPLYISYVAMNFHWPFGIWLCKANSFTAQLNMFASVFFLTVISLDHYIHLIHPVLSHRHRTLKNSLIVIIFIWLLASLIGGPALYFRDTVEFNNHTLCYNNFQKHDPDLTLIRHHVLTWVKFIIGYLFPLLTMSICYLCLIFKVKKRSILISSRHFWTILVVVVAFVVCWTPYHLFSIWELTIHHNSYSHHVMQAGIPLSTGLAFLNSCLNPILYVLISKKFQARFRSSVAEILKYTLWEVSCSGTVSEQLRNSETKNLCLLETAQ
Nature of the experiment: ERK1/2 phosphorylation in MEF cells, GPR1. Also on record: expressed in transfected cells. The following applies: PTX pre-treatment, 300 nM chemerin. As to the method:
CHO-K1 and MEF cells stably expressing receptors of interest were starved for 12–18 h in serum-free medium prior to stimulation. […] Whole cell lysates were resolved on 10% Tris/Tricine polyacrylamide gels and transferred to nitrocellulose membranes. Phosphorylated ERK1/2 and total ERK1/2 were detected by using rabbit polyclonal anti-phospho-ERK1/2 (Cell Signaling #4370, 1:1,000) and anti-ERK1/2 (Cell Signaling #4695S, 1:2,000) antibodies. Chemiluminescent detection was performed using ECL-Plus reagent (Perkin Elmer).
We next investigated the contribution of Gαi/o proteins and arrestins to ERK1/2 phosphorylation by using mouse embryonic fibroblast cells (MEF) deficient for the expression of arrestins (β-Arr1^-/- and β-Arr2^-/-) and stably expressing CMKLR1 or GPR1. […] However, we cannot rule out that the weak activation of G proteins by GPR1 contributes to ERK1/2 phosphorylation. We also must take into consideration that these assays display different levels of amplification and were performed in different cell types.
Fig 10 Contribution of Gi/o proteins and arrestins to CMKLR1- and GPR1-mediated ERK1/2 phosphorylation. […] Results are expressed as the ratio between the amounts of phospho-ERK1/2 and total ERK1/2 following quantification. […] Statistical significance was assessed using Tukey's test (***P < 0.0001; ** and ^## P< 0.001; * and ^# P< 0.01).

The target in experiment [3] is T2, GPR1. Put plainly: β-arrestin BRET recruitment assay, GPR1. Set-up: expressed in transfected cells; host or cells: HEK293T. Conditions: GPR1, HEK293T; PTX pretreatment, 100 nM chemerin. As to the method:
as §1, §2, §2
In general terms: Bioluminescence resonance energy transfer reports proximity on the nanometre scale.

Experiment [4] concerns the target T1, CMKLR1. Nature of the experiment: ERK1/2 phosphorylation in MEF cells, CMKLR1. Also on record: expressed in transfected cells. Conditions: PTX pre-treatment, 300 nM chemerin.
Procedure: Whole cell lysates were resolved on 10% Tris/Tricine polyacrylamide gels and transferred to nitrocellulose membranes. […] Chemiluminescent detection was performed using ECL-Plus reagent (Perkin Elmer).
Results are expressed as the ratio between the amounts of phospho-ERK1/2 and total ERK1/2 following quantification. […] MEF cells were derived form β-Arr1 KO and WT1 or β-Arr2 KO and WT2 siblings.

With Pertussis toxin, the “effect of PTX on β-arrestin1 recruitment” value is “inhibits partially β-arrestin1 recruitment to CMKLR1 and GPR1” at CMKLR1 [1]; “inhibits partially β-arrestin1 recruitment to CMKLR1 and GPR1” on GPR1 [3]. For the same substance, the “effect of PTX on β-arrestin2 recruitment” value at CMKLR1 [1] was “did not inhibit β-arrestin2 recruitment to CMKLR1 and GPR1”; on GPR1 [3], “did not inhibit β-arrestin2 recruitment to CMKLR1 and GPR1”. Besides, the “effect of PTX on ERK1/2 phosphorylation” value on GPR1 [2] and at CMKLR1 [4] was “partially inhibited” throughout.
